Our source for the MIC values is patent US11286258B2, “Nature-inspired anticancer and antibacterial motifs and pharmaceutical composition thereof” (University of Sharjah, priority 2020, dated 2022).

The test has as its system 6 MRSA strains. Briefly: MIC, panel of 6 MRSA strains. The test is classed as cell-based. As to conditions: Staphylococcus aureus, across the panel of tested Gram-positive strains, read-out: MIC against all the 6 MRSA strains. The protocol: Antibacterial activity: The compounds were tested for the minimum inhibitory concentrations (MIC), which is the lowest concentration of a chemical required to inhibit visible microbial growth following overnight incubation. MIC values were determined using broth microdilution method according to the Clinical and Laboratory Standards Institute guidelines (CLSI, 2015, M07-A10). Mueller-Hinton broth was used as a culture medium in all the experiments. Exponentially growing bacterial cells were prepared in Mueller-Hinton broth at a concentration of approximately 5×10^5 CFU/mL. Two-fold serial dilutions of the test compound (8 concentrations ranged between 100-0.78 μg/mL) were tested. […] In each experiment, solvent (DMSO) was used as a negative control, un-treated control (composing of bacteria in Mueller-Hinton broth) was used as a growth control, blank (culture media alone) was used as sterility control. The 96-well microplate with the test compounds was incubated overnight at 37° C. Turbidity in wells indicated bacterial growth.
The compounds were tested on six MDR Gram-positive bacteria including three clinical isolates of methicillin-resistant Staphylococcus aureus (MRSA-1, MRSA-2 and MRSA-3) and three reference MRSA strains (ATCC33591, ATCC33592 and ATCC700699). They were also tested on three MDR Gram-negative bacteria including New Delhi metallo-beta-lactamase (NDM-1) positive, carbapenem-resistant E. coli (ATCC BAA2469), extended-spectrum beta-lactamase (ESBL) producing, colistin-resistant E. coli (CDC-AR-0346) and carbapenem-resistant Acinetobacter baumannii (ATCC BAA1605), in addition to two non-MDR bacteria from the same species, namely E. coli (ATCC 25922) Acinetobacter baumannii (ATCC 19606).

≈ marks a conversion by molar mass, not a printed value.

For `Cc1ccc2c(c1)c1c3n2[C@@]2(C=C/C(=N\Nc4ccc(C(F)(F)F)cc4)CC2)CC[C@@H]3NCC1` [Compound 1h], the MIC worked out at 1.56 µg/mL (≈ 3.36 µM).

For orientation: MIC means the least concentration at which growth counts as inhibited.
